# Reference: patent publication US12599576B2 (ANTECIP BIOVENTURES II LLC, priority 2022, dated 2026)
# Legend:
# [1] = Solubility in water of the drug substance powder
# [2] = CYP2D6 inhibited by administering quinidine; cited from earlier work
# [3] = Example 3 / FIG. 1: effect of CYP2D6 poor metabolizer status on pharmacokinetics of the tablet after 8 days of twice daily dosing; settings: tablet 45 mg dextromethorphan hydrobromide/105 mg bupropion hydrochloride, 8 days twice daily; reference extensive or ultra-extensive CYP2D6 metabolizers; GMR
# [4] = Inventor's clinical-trial finding: plasma levels in CYP2D6 poor metabolizers vs other patients after combination of bupropion and dextromethorphan; settings: combination of bupropion and dextromethorphan administered
# [5] = system: patients with agitation associated with Alzheimer's disease; test: Phase 2/3 randomized, double-blind, controlled clinical trial of DM/BU in agitation associated with Alzheimer's disease; assay type: in vivo, human
# Method: A Phase ⅔ randomized, double-blind, controlled, multicenter, U.S. clinical trial was conducted to evaluate the efficacy and safety of DM/BU in patients with agitation associated with Alzheimer's disease. […] An independent data monitoring committee performed an interim futility analysis and recommended no further randomization to the bupropion arm. Subsequently, patients were randomized in a 1:1 ratio to receive DM/BU or placebo. […] The minimum score on the CMAI is 29, corresponding to the total absence of symptoms, with higher scores corresponding to greater agitation. The primary endpoint of the study was the change from baseline in the CMAI total score at Week 5. P-values were calculated based on least square mean estimates.
# Inclusion criteria included male or female […], diagnosis of probable Alzheimer's disease, according to the 2011 NIA-AA criteria, diagnosis of agitation, according to the IPA provisional definition of agitation, MMSE score between 10 and 24, an NPI-AA score≥4, and community dwelling. Exclusion criterial included dementia of non-Alzheimer's type and current use of a selective serotonin reuptake inhibitor and/or a serotonin and norepinephrine inhibitor (SSRI/SNRI). Demographics and baseline characteristics are shown in Table 9 of U.S. Pat. No. 10,898,453.
smiles,measurement,setting,value
"Br.COc1ccc2c(c1)[C@]13CCCC[C@@H]1[C@H](C2)N(C)CC3 [Dextromethorphan hydrobromide, morphinan, 3-methoxy-17-methyl-, (9α, 13α, 14α), hydrobromide monohydrate]",solubility in water,[1],sparingly soluble in water
COc1ccc2c(c1)[C@]13CCCC[C@@H]1[C@H](C2)N(C)CC3 [dextromethorphan],AUC0-12 of dextromethorphan higher for CYP2D6 poor metabolizers compared to non-poor metabolizers,[2],about 46%
same,Cmax of dextromethorphan higher for poor metabolizers compared to non-poor metabolizers,[2],about 40%
same,increase in dextromethorphan AUC0-12 for CYP2D6 poor metabolizers,[3],3.40 fold
same,increase in dextromethorphan Cmax for CYP2D6 poor metabolizers,[3],3.00 fold
same,Cmax and AUC of dextromethorphan in poor metabolizers vs patients who are not poor metabolizers,[4],significantly higher
CC(NC(C)(C)C)C(=O)c1cccc(Cl)c1 (centres unmarked) [bupropion],mean reduction from baseline in CMAI total score,"[5]; Week 5 (primary endpoint), placebo 11.5, DM/BU vs placebo p=0.010",10.0 points
same,adverse event: diarrhea,"[5]; both, human, in vivo, 5 weeks",6.1%
same,adverse event: dizziness,"[5]; both, human, in vivo, 5 weeks",10.2%
same,adverse event: somnolence,"[5]; both, human, in vivo, 5 weeks",4.1%
same,rate of discontinuation due to adverse events,"[5]; both, human, in vivo, 5 weeks",2.0%
same,"serious adverse events reported, patients","[5]; both, human, in vivo, 5 weeks",8.2%
same,deaths in arm,[5]; one death in the placebo arm,one
"CC(NC(C)(C)C)C(=O)c1cccc(Cl)c1.Cl (racemic) [Bupropion hydrochloride, (±)-1-(3-chlorophenyl)-2-[(1,1-dimethylethyl)amino]-1-propanone hydrochloride]",solubility in water,[1],highly soluble in water
